Experimental data: patent publication US20080063628A1, “METHODS TO PROMOTE CELL DIFFERENTIATION” (priority 2006, published 2008)

Assays:
Format in all cases: cell-based, human
[1] = test system: late passage pancreatic-derived stromal cells; assay: Chronic trichostatin A treatment, gene expression by RT-PCR (Example 5)
Protocol: Pancreatic-derived stromal cells were obtained according to the methods described in Example 13. Cells were seeded into a 24-well tissue culture plate at a density of 5000/cm^2 and cultured in DMEM with 10% FBS under standard cell culture conditions until confluent. After the cells reached confluency, sample wells were treated with either 1.25 μM or 2.5 μM trichostatin A diluted in DMSO and medium; control wells received DMSO at an equivalent concentration. At 24 hour intervals over the three day culture period, cultures underwent a complete medium change, and a fresh dilution of trichostatin A or DMSO was added as appropriate. RNA samples were obtained from treated cultures daily after the initial addition of trichostatin A or DMSO. Culture medium was removed, cells were washed with PBS, and RLT lysis buffer with β-mercaptoethanol (Qiagen) was added. RNA was purified using the RNeasy Mini Kit (Qiagen), and RNA quantity and quality was determined using a spectrophotometer. cDNA was made using the iScript cDNA synthesis kit (BioRad).
Expression levels of Sox17, HNF-3 beta, Pdx-1, insulin, and glucagon were determined by RT-PCR. Samples of 20 ng cDNA were used in each reaction, which was performed on the Applied Biosystems 7500, according to the methods described in Example 15. Data were analyzed using the accompanying software. Human pancreas cDNA was included as a control. Results were normalized against GAPDH expression levels.
(§1) Real-time PCR amplifcation and quantitative analysis. Unless otherwise stated, all reagents were purchased from Applied Biosystems. Real-time PCR reactions were performed using the ABI PRISM™ 7500 Sequence Detection System. TAQMAN™ FAST UNIVERSAL PCR MASTER MIX™ (ABI, CA) was used with 20 ng of reverse transcribed RNA in a total reaction volume of 20 μl. Each cDNA sample was run in duplicate to allow correction of pipetting errors. Primers and FAM-labeled TAQMAN™ probes were used at concentrations of 200 nM. The level of expression for each target gene was normalized using the pre-developed Applied Biosystem's human glyceraldehyde-3-phosphate dehydrogenase (GAPDH) endogenous control kit. Primers and probes were designed using either ABI PRISM PRIMER EXPRESS™ software or a pre-developed ABI gene analysis kit. For each gene, either one of the primers or the probe were designed to be exon-boundary spanning. This eliminated the possibility of the primers/probe binding to any genomic DNA present. The primer and probe sets are listed as follows: Pdx-1 (Hs00426216), Insulin (Hs00355773), glucagon (Hs00174967), and FoxA2 (HNF 3-beta) (Hs00232764). The remaining primers were designed using the PRIMERS program (ABI, CA). After an initial 95° C. incubation for 20 sec, samples were cycled 40 times in two stages: a denaturation step at 95° C. for 3 sec, followed by an annealing/extension step at 60° C. for 30 sec.
(§2) For each primer/probe set, a cycle time value was determined as the cycle number at which the fluorescence intensity of the PCR reaction reached a specific value in the middle of the exponential region of amplification. An increase in expression of a gene corresponded to a decrease in the number of cycles required for the fluorescence intensity to reach this value.

[2] = test system: amniotic fluid-derived cell line; assay: 6 hour trichostatin A treatment, gene expression by RT-PCR (Example 10); settings: for Gata1 gene expression / HNF-3 beta gene expression / Insulin gene expression / Pdx-1 gene expression / sox17 gene expression: 1.25 μM for 6 h then removed
Protocol: (§3) Amniotic fluid derived cells or pancreas-derived cells were seeded into 24-well tissue culture plates at a density of 5000/cm^2 and cultured in AMNIOMAX (Invitrogen) or DMEM with 10% FBS respectively under standard cell culture conditions until confluency was reached. Upon reaching confluency, amniotic fluid derived cells were treated with 1.25 μM trichostatin A and pancreas-derived stromal cells were treated with 5.0 μM trichostatin A. The media was changed 6 hours following the addition of trichostatin A and cultures were maintained for the remainder of the experiment. Several cell lines obtained from amniotic fluid (see Example 14) and pancreas (see Example 13) were tested.
(§4) RNA samples were obtained at the time the trichostatin A was removed and 24 hours from the start of the experiment. The culture media was removed and cells were washed with PBS then collected in RLT Lysis Buffer with β-mercaptoethanol (Qiagen). RNA was purified using the RNeasy Mini Kit (Qiagen) and RNA quantity and quality was determined using a spectrophotometer. cDNA was made using the iScript cDNA synthesis kit (BioRad). Human pancreas cDNA was included as a control. Results were normalized against GAPDH expression levels.
(§5) The expression levels of Sox17, HNF-3 beta, Pdx-1, Insulin, and Gata-1 were analyzed in amniotic-derived cells while the expression levels of glucagon, insulin, PDX-1 and HNF-3 beta were analyzed in pancreas-derived cells. 20 ng of cDNA was used in each RT-PCR reaction, which was performed on the Applied Biosystems 7500, according to the methods described in Example 15. Data was analyzed using the accompanying software.
as §1, §2

[3] = test system: late passage (P11) pancreatic-derived stromal cell line; assay: as above; settings: for HNF-3 beta gene expression / Insulin gene expression / Pdx-1 gene expression / glucagon gene expression: 5 μM for 6 h then removed
Protocol: as §3, §4, §5, §1, §2

[4] = 1.25 μM renewed daily, 24 hours
[5] = 1.25 μM renewed daily, 48 hours
[6] = 1.25 μM renewed daily, 72 hours
[7] = 5.0 μM, following 6 h treatment

Compound: CC(/C=C/C(=O)NO)=C\[C@@H](C)C(=O)c1ccc(N(C)C)cc1 [trichostatin A]
- HNF-3 beta gene expression [1, 4]: +++ (detectable at less than 35 cycles by RT-PCR with std error less than 0.9)
- Insulin gene expression [1, 4]: nd (not detectable at >40 cycles by RT-PCR)
- PDX-1 gene expression [1, 4]: + (detectable between 35 and 40 cycles by RT-PCR)
- Sox17 gene expression [1, 4]: +++ (detectable at less than 35 cycles by RT-PCR with std error less than 0.9)
- glucagon gene expression [1, 4]: + (detectable between 35 and 40 cycles by RT-PCR)
- HNF-3b gene expression [1, 5]: ++ (detectable at less than 35 cycles by RT-PCR with std error greater than 0.9)
- Insulin gene expression [1, 5]: nd (not detectable at >40 cycles by RT-PCR)
- PDX-1 gene expression [1, 5]: +++ (detectable at less than 35 cycles by RT-PCR with std error less than 0.9)
- Sox17 gene expression [1, 5]: +++ (detectable at less than 35 cycles by RT-PCR with std error less than 0.9)
- glucagon gene expression [1, 5]: + (detectable between 35 and 40 cycles by RT-PCR)
- HNF-3b gene expression [1, 6]: +++ (detectable at less than 35 cycles by RT-PCR with std error less than 0.9)
- Insulin gene expression [1, 6]: nd (not detectable at >40 cycles by RT-PCR)
- PDX-1 gene expression [1, 6]: +++ (detectable at less than 35 cycles by RT-PCR with std error less than 0.9)
- Sox17 gene expression [1, 6]: +++ (detectable at less than 35 cycles by RT-PCR with std error less than 0.9)
- glucagon gene expression [1, 6]: + (detectable between 35 and 40 cycles by RT-PCR)
- HNF-3 beta gene expression ([1]; 2.5 μM renewed daily, 24 hours): + (detectable between 35 and 40 cycles by RT-PCR)
- Insulin gene expression ([1]; 2.5 μM renewed daily, 24 hours): nd (not detectable at >40 cycles by RT-PCR)
- PDX-1 gene expression ([1]; 2.5 μM renewed daily, 24 hours): +++ (detectable at less than 35 cycles by RT-PCR with std error less than 0.9)
- Sox17 gene expression ([1]; 2.5 μM renewed daily, 24 hours): +++ (detectable at less than 35 cycles by RT-PCR with std error less than 0.9)
- glucagon gene expression ([1]; 2.5 μM renewed daily, 24 hours): nd (not detectable at >40 cycles by RT-PCR)
- HNF-3b gene expression ([1]; 2.5 μM renewed daily, 48 hours): + (detectable between 35 and 40 cycles by RT-PCR)
- Insulin gene expression ([1]; 2.5 μM renewed daily, 48 hours): nd (not detectable at >40 cycles by RT-PCR)
- PDX-1 gene expression ([1]; 2.5 μM renewed daily, 48 hours): +++ (detectable at less than 35 cycles by RT-PCR with std error less than 0.9)
- Sox17 gene expression ([1]; 2.5 μM renewed daily, 48 hours): +++ (detectable at less than 35 cycles by RT-PCR with std error less than 0.9)
- glucagon gene expression ([1]; 2.5 μM renewed daily, 48 hours): + (detectable between 35 and 40 cycles by RT-PCR)
- HNF-3b gene expression ([1]; 2.5 μM renewed daily, 72 hours): +++ (detectable at less than 35 cycles by RT-PCR with std error less than 0.9)
- Insulin gene expression ([1]; 2.5 μM renewed daily, 72 hours): nd (not detectable at >40 cycles by RT-PCR)
- PDX-1 gene expression ([1]; 2.5 μM renewed daily, 72 hours): + (detectable between 35 and 40 cycles by RT-PCR)
- Sox17 gene expression ([1]; 2.5 μM renewed daily, 72 hours): +++ (detectable at less than 35 cycles by RT-PCR with std error less than 0.9)
- glucagon gene expression ([1]; 2.5 μM renewed daily, 72 hours): nd (not detectable at >40 cycles by RT-PCR)
- Gata1 gene expression ([2]; 6 hrs): nd (not detectable at >40 cycles by RT-PCR)
- HNF-3 beta gene expression ([2]; 6 hrs): +++ (detectable at less than 35 cycles by RT-PCR with SE less than 0.9)
- Insulin gene expression ([2]; 6 hrs): nd (not detectable at >40 cycles by RT-PCR)
- Pdx-1 gene expression ([2]; 6 hrs): + (detectable between 35 and 40 cycles by RT-PCR)
- sox17 gene expression ([2]; 6 hrs): +++ (detectable at less than 35 cycles by RT-PCR with SE less than 0.9)
- Gata1 gene expression ([2]; 24 hrs): nd (not detectable at >40 cycles by RT-PCR)
- HNF-3 beta gene expression ([2]; 24 hrs): +++ (detectable at less than 35 cycles by RT-PCR with SE less than 0.9)
- Insulin gene expression ([2]; 24 hrs): nd (not detectable at >40 cycles by RT-PCR)
- Pdx-1 gene expression ([2]; 24 hrs): nd (not detectable at >40 cycles by RT-PCR)
- sox17 gene expression ([2]; 24 hrs): +++ (detectable at less than 35 cycles by RT-PCR with SE less than 0.9)
- Pdx-1 RT-PCR detection cycle ([2]; 1.25 μM, after treatment (37 before treatment)): 35 cycles
- HNF-3 beta RT-PCR detection cycle ([2]; 1.25 μM, following 6 h treatment): 32 cycles
- HNF-3 beta RT-PCR detection cycle ([2]; 1.25 μM, following the wash): 35 cycles
- HNF-3 beta gene expression ([3]; 6 hrs): + (detectable between 35 and 40 cycles by RT-PCR)
- Insulin gene expression ([3]; 6 hrs): nd (not detectable at >40 cycles by RT-PCR)
- Pdx-1 gene expression ([3]; 6 hrs): + (detectable between 35 and 40 cycles by RT-PCR)
- glucagon gene expression ([3]; 6 hrs): + (detectable between 35 and 40 cycles by RT-PCR)
- HNF-3 beta gene expression ([3]; 24 hrs): nd (not detectable at >40 cycles by RT-PCR)
- Insulin gene expression ([3]; 24 hrs): nd (not detectable at >40 cycles by RT-PCR)
- Pdx-1 gene expression ([3]; 24 hrs): nd (not detectable at >40 cycles by RT-PCR)
- glucagon gene expression ([3]; 24 hrs): + (detectable between 35 and 40 cycles by RT-PCR)
- HNF-3 beta RT-PCR detection cycle [3, 7]: 36 cycles
- Pdx-1 RT-PCR detection cycle [3, 7]: 37 cycles
- glucagon RT-PCR detection cycle [3, 7]: 37 cycles
- glucagon RT-PCR detection cycle ([3]; 5.0 μM, following the removal): 35 cycles
